Like-named read-outs stand apart in the source and are kept apart here.
Experiments:
MAPK1 = experiment: Kinase selectivity panel; format: biochemical, human; settings: in the presence of 10 μM compound
[1] = system: poly(ADP-ribose)polymerase (PARP) cleavage fragment; experiment: PARP cleavage by western blot (induction of apoptosis); format: cell-based, human; settings: K562 cells; FIG. 4 legend: MCF7 cells, 72 h
Experimental: For direct immunoblotting, total cellular protein lysates were prepared by harvesting treated cells in Laemmli sample buffer. […] The probing with anti-PARP monoclonal antibody (clone C-2-10) diluted 1:1000 lasted for 2 h at 22° C. After washing three times in PBS-T, the membrane was incubated with a 1:1000 dilution of peroxidase conjugated rabbit antimouse immunoglobulin. After another three washes in PBS-T, peroxidase activity was detected by ECL chemiluminiscence reagents (Amersham) according to the manufacturer's instructions. After a longer incubation period (48-72 h) the cells started to die, with the some morphological features typical for apoptosis. […] The induction of apoptosis was therefore verified by the detection of a poly(ADP-ribose)polymerase (PARP) cleavage fragment. PARP is specifically cleaved as a result of activation of upstream proapoptotic caspases into 89 kDa and 27 kDa peptides.

CHK1 = CHK1 (Homo sapiens, UniProt O14757); experiment: Kinase selectivity panel; format: biochemical; settings: in the presence of 10 μM compound
CK2 = CK2 (Homo sapiens, UniProt P68400); experiment: Kinase selectivity panel; format: biochemical; settings: in the presence of 10 μM compound
CDK2/cyclin E = molecular target: T1, CDK2/cyclin E (Homo sapiens, UniProt P24941); experiment: CDK2/cyclin E kinase inhibition assay (histone H1, [γ-33P]ATP); format: biochemical
T1 construct: made in house; host or cells: Sf9 insect cells (baculovirus co-infection)
Experimental: (§1) CDK1/cyclin B and CDK2/cyclin E kinases were produced in Sf9 insect cells coinfected with appropriate baculoviral constructs. The cells were harvested 70 h post infection, incubated in lysis buffer (50 mM Tris pH 7.4, 150 mM NaCl, 5 mM EDTA, 20 mM NaF, 1% Tween 20, 1 mM DTT, 0.1 mM PMSF, 0.5 μg/ml leupeptine, 1 μg/ml aprotonine) for 30 min on ice and the soluble fraction was recovered by centrifugation at 20.000 g for 10 min. The enzymes were purified on NiNTA column (Qiagen), stored at 4° C. and used within a week. To carry out the enzyme inhibition assays under linear conditions, the final point test system for kinase activity measurement was used. Kinase was added to reaction mixture in such a way as to obtain linear activity with respect to the concentration of enzyme and with respect to time. For determination of kinase inhibition the reaction mixture contained 1 mg/ml histone H1 (type III-S, Sigma) in the presence of 15 μM ATP, 0.05 μCi [γ-^33P]ATP and the tested compound in a final volume of 10 μl; all in reaction buffer (50 mM HEPES, 10 mM MgCl2, 5 mM EGTA, 10 mM 2-glycerolphosphate, 1 mM NaF, 1 mM DTT, pH 7.4). After 20 min incubation, the reactions were stopped by the addition of 5 μl of a 3% H3PO4, aliquots were spotted on P-81 phosphocellulose (Whatman, USA) that was subsequently washed 3× with 5% H3PO4 and finally air dried. The measurements of kinase inhibition employed digital image analyzer BAS-1800 (Fujifilm, Japan). Kinase activity was usually expressed as a percentage of maximum activity. […] For the purpose of kinetic analysis, the activity was expressed as arbitrary units (AU) of digital image analyzer signal.

c-Abl = c-Abl (Homo sapiens, UniProt P00519); experiment: Kinase selectivity panel; format: biochemical; settings: in the presence of 10 μM compound
PKBα = PKBα (Homo sapiens, UniProt P31749); experiment: Kinase selectivity panel; format: biochemical; settings: in the presence of 10 μM compound
CDK1/cyclin B = molecular target: T2, CDK1/cyclin B (Homo sapiens, UniProt P06493); experiment: CDK1/cyclin B kinase inhibition assay (histone H1, [γ-33P]ATP); format: biochemical
T2 construct: made in house; host or cells: Sf9 insect cells (baculovirus co-infection)
Experimental: as §1

[2] = In vitro cytotoxicity, Calcein AM, 72 h; format: cell-based, human; settings: human, at 100 μM
Experimental: Tested drugs were added to the cell cultures in six different concentration and kept at 37° C. and 5% CO2 for three days.
The cells, cultured in DMEM (supplemented with 10% fetal calf serum, 4 mM glutamine, 100 IU/ml penicillin, 100 μg/ml streptomycin) in a humidified CO2 incubator at 37° C., were redistributed into 96-well microtitre plates (10.000 cells per well). After 12 h preincubation, tested compounds in six-fold dilutions were added. Treatment of cells with the tested compounds (in the 1-100 μM range) lasted for 72 h.

PKA = PKA (Homo sapiens, UniProt P17612); settings: in the presence of 10 μM compound
SAPK2α = SAPK2α (Homo sapiens, UniProt Q16539); experiment: Kinase selectivity panel; format: biochemical; settings: in the presence of 10 μM compound
CDK7/cyclin H = CDK7/cyclin H (Homo sapiens, UniProt P50613); experiment: Kinase selectivity panel; format: biochemical; settings: in the presence of 10 μM compound
p70S6K = p70S6K (Homo sapiens, UniProt P23443); experiment: Kinase selectivity panel; format: biochemical
K562 cell line = experiment: Cell cycle analysis by flow cytometry; format: cell-based, human
Experimental: Taxol (1 μM) treated and control cells were harvested and analyzed simultaneously.
The antiproliferative activity of 4-arylazo-3,5-diaminopyrazoles was subsequently verified by flow cytometry with subconfluent and asynchronously growing K562 cell line. […] The cell cycle block in G2/M was not dominant.
After a longer incubation period (48-72 h) the cells started to die, with the some morphological features typical for apoptosis. […] The induction of apoptosis was therefore verified by the detection of a poly(ADP-ribose)polymerase (PARP) cleavage fragment. PARP is specifically cleaved as a result of activation of upstream proapoptotic caspases into 89 kDa and 27 kDa peptides.

GSK3β = GSK3β (Homo sapiens, UniProt P49841); experiment: Kinase selectivity panel; format: biochemical; settings: in the presence of 10 μM compound
[3] = averaged from triplicates, 15 μM ATP
[4] = in the presence of 10 μM compound

T2 sequence (P06493 whole entry): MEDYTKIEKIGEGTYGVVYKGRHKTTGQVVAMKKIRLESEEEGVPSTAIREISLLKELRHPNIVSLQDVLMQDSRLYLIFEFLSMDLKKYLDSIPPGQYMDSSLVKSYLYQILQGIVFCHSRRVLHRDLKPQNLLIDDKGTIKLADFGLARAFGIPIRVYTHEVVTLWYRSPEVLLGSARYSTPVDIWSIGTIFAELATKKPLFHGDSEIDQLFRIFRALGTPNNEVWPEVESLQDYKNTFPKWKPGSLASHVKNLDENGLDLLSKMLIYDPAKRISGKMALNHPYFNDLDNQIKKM
T2 sequence (P14635 whole entry partner): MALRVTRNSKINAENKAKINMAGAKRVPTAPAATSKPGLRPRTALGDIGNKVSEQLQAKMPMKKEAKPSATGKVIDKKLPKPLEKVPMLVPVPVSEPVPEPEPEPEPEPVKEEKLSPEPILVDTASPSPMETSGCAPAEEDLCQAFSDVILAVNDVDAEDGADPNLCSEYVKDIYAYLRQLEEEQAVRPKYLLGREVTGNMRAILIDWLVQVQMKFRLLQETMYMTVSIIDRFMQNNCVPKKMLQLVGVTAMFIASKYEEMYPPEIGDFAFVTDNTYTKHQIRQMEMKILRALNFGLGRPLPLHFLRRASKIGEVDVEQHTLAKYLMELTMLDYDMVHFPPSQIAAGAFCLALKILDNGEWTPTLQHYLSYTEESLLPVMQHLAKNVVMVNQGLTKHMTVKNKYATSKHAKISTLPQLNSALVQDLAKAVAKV
p70S6K, sequence (P23443 whole entry): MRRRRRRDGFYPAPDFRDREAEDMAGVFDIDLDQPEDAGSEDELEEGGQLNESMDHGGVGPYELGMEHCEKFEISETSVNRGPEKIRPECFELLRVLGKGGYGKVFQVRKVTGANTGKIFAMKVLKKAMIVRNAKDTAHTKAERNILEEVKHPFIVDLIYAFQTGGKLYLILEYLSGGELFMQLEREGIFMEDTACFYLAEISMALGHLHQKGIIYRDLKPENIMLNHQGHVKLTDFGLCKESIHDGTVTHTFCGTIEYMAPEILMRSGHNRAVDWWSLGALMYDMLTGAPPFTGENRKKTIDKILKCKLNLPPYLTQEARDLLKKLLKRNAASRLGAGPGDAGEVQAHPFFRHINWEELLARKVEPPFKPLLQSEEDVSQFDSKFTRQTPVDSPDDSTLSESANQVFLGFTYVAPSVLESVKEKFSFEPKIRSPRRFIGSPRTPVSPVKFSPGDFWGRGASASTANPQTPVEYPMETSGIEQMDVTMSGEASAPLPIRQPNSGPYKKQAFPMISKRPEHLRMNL
CK2, sequence (P68400 whole entry): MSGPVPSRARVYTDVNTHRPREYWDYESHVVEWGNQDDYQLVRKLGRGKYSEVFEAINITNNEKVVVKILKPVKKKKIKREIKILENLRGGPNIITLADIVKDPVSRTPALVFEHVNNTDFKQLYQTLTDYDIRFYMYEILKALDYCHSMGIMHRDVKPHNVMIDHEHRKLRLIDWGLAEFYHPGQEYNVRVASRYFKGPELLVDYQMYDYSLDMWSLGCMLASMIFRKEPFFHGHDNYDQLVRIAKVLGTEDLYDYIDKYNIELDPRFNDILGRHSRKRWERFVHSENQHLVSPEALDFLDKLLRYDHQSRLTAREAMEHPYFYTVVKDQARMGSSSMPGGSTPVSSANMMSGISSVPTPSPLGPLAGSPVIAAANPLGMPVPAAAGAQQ
CHK1, sequence (O14757 whole entry): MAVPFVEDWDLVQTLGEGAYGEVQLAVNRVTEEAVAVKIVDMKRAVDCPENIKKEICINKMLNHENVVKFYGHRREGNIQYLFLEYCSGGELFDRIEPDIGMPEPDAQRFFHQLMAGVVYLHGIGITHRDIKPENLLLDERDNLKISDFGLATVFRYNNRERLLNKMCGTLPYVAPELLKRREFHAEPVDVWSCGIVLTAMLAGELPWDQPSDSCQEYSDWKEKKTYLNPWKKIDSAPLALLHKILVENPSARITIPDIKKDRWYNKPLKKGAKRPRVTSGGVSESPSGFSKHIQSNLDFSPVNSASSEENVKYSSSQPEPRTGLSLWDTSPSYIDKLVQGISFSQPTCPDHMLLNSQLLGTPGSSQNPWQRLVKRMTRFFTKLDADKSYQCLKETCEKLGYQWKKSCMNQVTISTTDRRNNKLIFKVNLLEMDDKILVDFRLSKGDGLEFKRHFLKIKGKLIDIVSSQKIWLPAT
PKBα, sequence (P31749 whole entry): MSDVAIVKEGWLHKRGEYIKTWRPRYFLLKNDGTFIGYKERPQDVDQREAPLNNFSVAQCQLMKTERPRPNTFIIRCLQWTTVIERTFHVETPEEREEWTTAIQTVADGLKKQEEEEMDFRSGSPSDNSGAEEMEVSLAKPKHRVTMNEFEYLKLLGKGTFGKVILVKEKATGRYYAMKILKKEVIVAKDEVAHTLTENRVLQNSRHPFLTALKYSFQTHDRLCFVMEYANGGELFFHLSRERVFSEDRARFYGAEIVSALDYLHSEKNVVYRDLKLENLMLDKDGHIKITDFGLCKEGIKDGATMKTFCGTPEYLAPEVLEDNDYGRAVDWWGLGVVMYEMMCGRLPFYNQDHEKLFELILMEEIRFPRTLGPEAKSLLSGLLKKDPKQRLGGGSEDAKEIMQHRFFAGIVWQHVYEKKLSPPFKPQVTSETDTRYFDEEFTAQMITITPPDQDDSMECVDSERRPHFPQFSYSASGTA
GSK3β, sequence (P49841 whole entry): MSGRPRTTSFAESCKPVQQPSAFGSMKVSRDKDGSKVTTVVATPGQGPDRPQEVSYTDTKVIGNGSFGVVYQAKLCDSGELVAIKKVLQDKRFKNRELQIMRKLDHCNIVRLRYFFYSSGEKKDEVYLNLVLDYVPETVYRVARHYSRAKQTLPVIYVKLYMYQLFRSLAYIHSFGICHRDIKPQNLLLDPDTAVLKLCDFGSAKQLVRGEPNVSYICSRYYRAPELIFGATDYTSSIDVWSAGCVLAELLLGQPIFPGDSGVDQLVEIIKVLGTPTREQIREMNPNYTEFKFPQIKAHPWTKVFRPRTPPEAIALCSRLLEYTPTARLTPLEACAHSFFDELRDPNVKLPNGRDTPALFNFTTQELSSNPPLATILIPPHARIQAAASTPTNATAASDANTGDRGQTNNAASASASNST
c-Abl, sequence (P00519 whole entry): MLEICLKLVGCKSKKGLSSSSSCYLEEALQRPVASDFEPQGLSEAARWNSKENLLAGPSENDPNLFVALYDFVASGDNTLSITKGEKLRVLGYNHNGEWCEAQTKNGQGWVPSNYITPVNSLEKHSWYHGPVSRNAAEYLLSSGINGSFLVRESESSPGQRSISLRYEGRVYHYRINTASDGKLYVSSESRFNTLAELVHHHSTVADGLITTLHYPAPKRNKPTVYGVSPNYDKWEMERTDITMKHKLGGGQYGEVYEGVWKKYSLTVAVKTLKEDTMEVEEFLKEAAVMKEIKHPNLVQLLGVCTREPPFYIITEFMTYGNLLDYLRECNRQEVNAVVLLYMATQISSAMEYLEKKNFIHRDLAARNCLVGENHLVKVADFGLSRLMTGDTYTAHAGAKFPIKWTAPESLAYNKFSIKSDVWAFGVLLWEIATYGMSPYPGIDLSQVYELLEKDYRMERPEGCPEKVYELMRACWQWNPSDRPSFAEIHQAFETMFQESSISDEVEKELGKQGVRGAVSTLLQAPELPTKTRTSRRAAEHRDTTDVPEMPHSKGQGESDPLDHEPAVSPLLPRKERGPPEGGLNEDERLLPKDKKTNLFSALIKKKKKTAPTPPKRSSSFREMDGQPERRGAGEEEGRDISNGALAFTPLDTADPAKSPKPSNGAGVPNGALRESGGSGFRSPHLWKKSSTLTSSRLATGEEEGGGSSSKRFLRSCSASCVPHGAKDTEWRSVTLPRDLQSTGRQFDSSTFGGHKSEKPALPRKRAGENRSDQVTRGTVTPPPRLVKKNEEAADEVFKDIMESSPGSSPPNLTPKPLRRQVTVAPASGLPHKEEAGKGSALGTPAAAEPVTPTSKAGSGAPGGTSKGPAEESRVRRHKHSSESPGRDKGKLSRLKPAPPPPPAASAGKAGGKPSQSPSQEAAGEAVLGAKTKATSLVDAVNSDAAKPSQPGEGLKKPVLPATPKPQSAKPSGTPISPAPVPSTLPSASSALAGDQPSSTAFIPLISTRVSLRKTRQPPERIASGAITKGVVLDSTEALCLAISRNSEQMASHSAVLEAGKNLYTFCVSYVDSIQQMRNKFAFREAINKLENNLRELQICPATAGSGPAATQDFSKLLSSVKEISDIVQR
CDK7/cyclin H, sequence (P50613 whole entry): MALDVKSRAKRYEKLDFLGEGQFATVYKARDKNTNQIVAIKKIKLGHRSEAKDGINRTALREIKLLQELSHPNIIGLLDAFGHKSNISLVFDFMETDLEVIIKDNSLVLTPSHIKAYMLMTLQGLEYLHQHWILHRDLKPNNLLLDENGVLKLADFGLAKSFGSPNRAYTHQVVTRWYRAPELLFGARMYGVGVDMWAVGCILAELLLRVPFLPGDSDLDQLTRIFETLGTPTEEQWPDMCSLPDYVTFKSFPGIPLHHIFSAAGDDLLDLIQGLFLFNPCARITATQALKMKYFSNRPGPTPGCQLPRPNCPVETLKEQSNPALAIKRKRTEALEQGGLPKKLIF
CDK7/cyclin H, sequence (P51946 whole entry partner): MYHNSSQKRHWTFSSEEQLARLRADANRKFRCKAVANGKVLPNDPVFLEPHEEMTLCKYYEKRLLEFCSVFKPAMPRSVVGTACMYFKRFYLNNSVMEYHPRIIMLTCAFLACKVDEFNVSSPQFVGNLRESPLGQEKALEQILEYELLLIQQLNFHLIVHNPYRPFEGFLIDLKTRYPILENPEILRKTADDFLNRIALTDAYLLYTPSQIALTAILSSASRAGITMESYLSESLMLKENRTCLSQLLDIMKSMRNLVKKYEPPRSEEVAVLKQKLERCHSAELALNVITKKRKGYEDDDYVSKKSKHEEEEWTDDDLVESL

Nc1n[nH]c(N)c1N=Nc1ccc(O)cc1 [Compound 12b, 3,5-diamino-4-(4-hydroxy)phenylazo-pyrazole]
% of kinase activity (MAPK1): 99% | PARP cleavage fragment (western blot) [1]: revealed a 89 kDa peptide | % of kinase activity (CHK1): 89% | % of kinase activity (CK2): 65% | IC50 (CDK2/cyclin E; [3]): 3.5 µM | % of kinase activity (CDK2/cyclin E; [4]): 31% | % of kinase activity (c-Abl): 84% | % of kinase activity (PKBα): 105% | IC50 (CDK1/cyclin B; [3]): 2.1 µM | % of kinase activity (CDK1/cyclin B; [4]): 19% | viability at 72 h, 100 µM ([2]; G 361 cells (human malignant melanoma), 72 h, read-out: % of viable cells G361): 8.3% | viability at 72 h, 100 µM ([2]; HOS cells (human osteogenic sarcoma), read-out: % of viable cells HOS): 22% | viability at 72 h, 100 µM ([2]; K562 cells (human chronic myeloblastic leukemia), 72 h, read-out: % of viable cells K562): 23% | viability at 72 h, 100 µM ([2]; MCF7 cells (human breast adenocarcinoma), 72 h, read-out: % of viable cells MCF7): 20% | % of kinase activity (PKA): 67% | % of kinase activity (SAPK2α): 82% | % of kinase activity (CDK7/cyclin H): 71% | IC50 (p70S6K): ~10 µM | % of kinase activity (p70S6K; [4]): 51% | cell death by western blotting and flow cytometry (K562 cell line; 72 h treatment): significant cell death | cell cycle distribution (K562 cell line; K562, 50 μM, after 12 h incubation): accumulation of cell population in G1 | sub-G1 peak / fragmented DNA (K562 cell line; K562, longer incubation period (48-72 h)): sub-G1 peak of cell fragments, containing fragmented DNA | % of kinase activity (GSK3β): 81%
